What was measured:
Acinetobacter baumannii [1] = test: Antibacterial activity against clinical isolate Acinetobacter baumannii IC 19/09 expressing blaNDM-1 co-expressing blaOXA-64 assessed as meropenem MIC at 80 uM measured after 20 hrs by broth microdilution assay (reference value: 21.3 mg/L); type: functional
Klebsiella pneumoniae [2] = test: Antibacterial activity against clinical isolate Klebsiella pneumoniae 50/11 expressing blaNDM-1 co-expressing blaTEM-1/blaSHV-28/blaTEM-1/blaCTX-M-15 and blaOXA-1 assessed as meropenem MIC at 80 uM measured after 20 hrs by broth microdilution assay (reference value: 21.3 mg/L); type: functional
[3] = Inhibition of GIM1 (unknown origin) incubated for 15 mins by absorbance based microplate reader analysis; design: species or system Bacteria
[4] = Inhibition of VIM-2 (unknown origin) incubated for 15 mins by absorbance based microplate reader analysis; design: species or system Bacteria
Escherichia coli [5] = test: Antibacterial activity against clinical isolate Escherichia coli ST1012/10 expressing blaNDM-1 co-expressing blaTEM-1/blaCTX-M-15/blaOXA-1 and blaOXA-2 assessed as meropenem MIC at 40 uM measured after 20 hrs by broth microdilution assay (reference value: 10.65 mg/L); type: functional
[6] = Inhibition of IMP-1 (unknown origin) expressed in Escherichia coli BL21-DE3 incubated for 15 mins by absorbance based microplate reader analysis; design: species or system Bacteria
Klebsiella pneumoniae [7] = test: Antibacterial activity against clinical isolate Klebsiella pneumoniae 50/20 expressing blaNDM-5 co-expressing blaTEM-1 and blaSHV-1 assessed as meropenem MIC at 40 uM measured after 20 hrs by broth microdilution assay (reference value: 10.65 mg/L); type: functional
Escherichia coli [8] = test: Antibacterial activity against clinical isolate Escherichia coli K12 J53-ST10 696/17 expressing blaNDM-1 co-expressing blaCMY-4 assessed as meropenem MIC at 80 uM measured after 20 hrs by broth microdilution assay (reference value: 21.3 mg/L); type: functional
Klebsiella pneumoniae [9] = test: Antibacterial activity against clinical isolate Klebsiella pneumoniae 62/07 expressing blaVIM-19 co-expressing blaSHV-1/blaCTX-M-14 and blaCMY-4 assessed as meropenem MIC at 80 uM measured after 20 hrs by broth microdilution assay (reference value: 21.3 mg/L); type: functional
Escherichia coli [10] = test: Antibacterial activity against clinical isolate Escherichia coli 371/12 expressing blaNDM-7 co-expressing blaCTX-M-15 and blaOXA-1 assessed as meropenem MIC at 80 uM measured after 20 hrs by broth microdilution assay (reference value: 21.3 mg/L); type: functional
Escherichia coli [11] = test: Antibacterial activity against clinical isolate Escherichia coli ST1012/10 expressing blaNDM-1 co-expressing blaTEM-1/blaCTX-M-15/blaOXA-1 and blaOXA-2 assessed as meropenem MIC at 80 uM measured after 20 hrs by broth microdilution assay (reference value: 21.3 mg/L); type: functional
Klebsiella pneumoniae [12] = test: Antibacterial activity against clinical isolate Klebsiella pneumoniae 50/20 expressing blaNDM-5 co-expressing blaTEM-1 and blaSHV-1 assessed as meropenem MIC at 80 uM measured after 20 hrs by broth microdilution assay (reference value: 21.3 mg/L); type: functional
[13] = Selectivity ratio of Ki for human recombinant MMP-2 CD to Ki for C-terminal 6His-tagged full length NDM-1 (unknown origin)
Escherichia coli [14] = test: Antibacterial activity against clinical isolate Escherichia coli K12 J53-ST10 618/15 expressing blaNDM-1 assessed as meropenem MIC at 80 uM measured after 20 hrs by broth microdilution assay (reference value: 21.3 mg/L); type: functional
Escherichia coli [15] = test: Antibacterial activity against clinical isolate Escherichia coli K12 J53-ST10 684/18 expressing blaNDM-1 co-expressing blaCMY-2 and blaOXA-10 assessed as meropenem MIC at 40 uM measured after 20 hrs by broth microdilution assay (reference value: 10.65 mg/L); type: functional
Escherichia coli [16] = test: Antibacterial activity against clinical isolate Escherichia coli K12 J53-ST10 696/17 expressing blaNDM-1 co-expressing blaCMY-4 assessed as meropenem MIC at 40 uM measured after 20 hrs by broth microdilution assay (reference value: 10.65 mg/L); type: functional
Escherichia coli [17] = test: Antibacterial activity against clinical isolate Escherichia coli K12 J53-ST10 699/15 expressing blaNDM-1 assessed as meropenem MIC at 40 uM measured after 20 hrs by broth microdilution assay (reference value: 10.65 mg/L); type: functional
[18] = molecular target: T1, 72 kDa type IV collagenase (Homo sapiens, UniProt P08253); test: Inhibition of human recombinant MMP-2 CD at 10 uM using OMNIMMP as substrate incubated for 30 mins by fluorescence based analysis relative to control
Target sequence in this assay (P08253 110-660 limits assumed): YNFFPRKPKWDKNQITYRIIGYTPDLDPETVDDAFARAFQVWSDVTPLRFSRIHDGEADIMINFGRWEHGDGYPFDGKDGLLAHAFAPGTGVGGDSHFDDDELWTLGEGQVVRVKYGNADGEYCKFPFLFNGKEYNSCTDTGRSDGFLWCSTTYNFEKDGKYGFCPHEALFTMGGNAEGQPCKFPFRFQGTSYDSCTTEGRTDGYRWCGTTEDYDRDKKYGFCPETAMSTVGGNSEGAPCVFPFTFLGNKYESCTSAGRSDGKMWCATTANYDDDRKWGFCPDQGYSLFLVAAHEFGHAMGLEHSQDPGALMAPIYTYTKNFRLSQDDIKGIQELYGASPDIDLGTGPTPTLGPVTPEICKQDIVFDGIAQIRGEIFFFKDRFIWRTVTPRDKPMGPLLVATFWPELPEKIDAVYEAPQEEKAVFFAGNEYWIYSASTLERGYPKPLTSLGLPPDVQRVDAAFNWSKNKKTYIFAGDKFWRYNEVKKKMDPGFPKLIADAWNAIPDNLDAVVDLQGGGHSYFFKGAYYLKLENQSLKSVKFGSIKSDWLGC

Klebsiella pneumoniae [19] = test: Antibacterial activity against clinical isolate Klebsiella pneumoniae ST23213/19 expressing blaNDM-1 co-expressing blaOXA-48/blaSHV-11/blaCTX-M-15 and blaOXA-1 assessed as meropenem MIC at 40 uM measured after 20 hrs by broth microdilution assay (reference value: 10.65 mg/L); type: functional
Klebsiella pneumoniae [20] = test: Antibacterial activity against clinical isolate Klebsiella pneumoniae 50/11 expressing blaNDM-1 co-expressing blaTEM-1/blaSHV-28/blaTEM-1/blaCTX-M-15 and blaOXA-1 assessed as meropenem MIC at 40 uM measured after 20 hrs by broth microdilution assay (reference value: 10.65 mg/L); type: functional
Klebsiella pneumoniae [21] = test: Antibacterial activity against clinical isolate Klebsiella pneumoniae ST23213/19 expressing blaNDM-1 co-expressing blaOXA-48/blaSHV-11/blaCTX-M-15 and blaOXA-1 assessed as meropenem MIC at 80 uM measured after 20 hrs by broth microdilution assay (reference value: 21.3 mg/L); type: functional
[22] = molecular target: Carbonic anhydrase 2 (Homo sapiens) (UniProt P00918); test: Inhibition of human CA2 at 10 uM using pNPA as substrate preincubated for 15 mins followed by substrate by absorbance based analysis relative to control
Klebsiella pneumoniae [23] = test: Antibacterial activity against clinical isolate Klebsiella pneumoniae ST1493/10 expressing blaNDM-1 co-expressing blaCMY-2like/blaTEM-1/blaCTX-M-15/blaSHV-28/blaOXA-1 and blaOXA-9 assessed as meropenem MIC at 40 uM measured after 20 hrs by broth microdilution assay (reference value: 10.65 mg/L); type: functional
Escherichia coli [24] = test: Antibacterial activity against clinical isolate Escherichia coli K12 J53-ST10 618/15 expressing blaNDM-1 assessed as meropenem MIC at 40 uM measured after 20 hrs by broth microdilution assay (reference value: 10.65 mg/L); type: functional
[25] = molecular target: Histone deacetylase 1 (Homo sapiens) (UniProt Q13547); test: Inhibition of C-terminal 6His/FLAG-tagged human recombinant full-length HDAC1 (1 to 482(end) residues) at 10 uM using Boc-Lys-(Ac)-AMC as substrate incubated for 10 mins followed by substrate addition measured after 1 hr by fluorescence based analysis relative to control; conditions: time 70.0 min
Histone deacetylase 1 (Homo sapiens), sequence (Q13547 whole entry): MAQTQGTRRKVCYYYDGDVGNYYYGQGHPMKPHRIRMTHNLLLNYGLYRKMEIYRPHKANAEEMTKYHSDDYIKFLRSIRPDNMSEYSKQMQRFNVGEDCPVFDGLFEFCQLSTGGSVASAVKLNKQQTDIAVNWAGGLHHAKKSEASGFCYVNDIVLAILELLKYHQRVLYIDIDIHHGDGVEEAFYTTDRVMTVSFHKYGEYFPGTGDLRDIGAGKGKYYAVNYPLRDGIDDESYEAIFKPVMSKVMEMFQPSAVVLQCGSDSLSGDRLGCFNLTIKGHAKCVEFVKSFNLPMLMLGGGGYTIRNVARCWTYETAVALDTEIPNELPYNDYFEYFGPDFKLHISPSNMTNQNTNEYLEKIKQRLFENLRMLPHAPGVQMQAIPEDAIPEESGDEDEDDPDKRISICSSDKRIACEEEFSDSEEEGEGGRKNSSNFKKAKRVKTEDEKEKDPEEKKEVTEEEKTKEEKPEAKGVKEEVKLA

Escherichia coli [26] = test: Antibacterial activity against clinical isolate Escherichia coli K12 J53-ST10 684/18 expressing blaNDM-1 co-expressing blaCMY-2 and blaOXA-10 assessed as meropenem MIC at 80 uM measured after 20 hrs by broth microdilution assay (reference value: 21.3 mg/L); type: functional
[27] = molecular target: T1, 72 kDa type IV collagenase; test: Binding affinity to human recombinant MMP-2 CD assessed as inhibition constant using OMNIMMP as substrate incubated for 30 mins by fluorescence based analysis
Target sequence in this assay (P08253 whole entry): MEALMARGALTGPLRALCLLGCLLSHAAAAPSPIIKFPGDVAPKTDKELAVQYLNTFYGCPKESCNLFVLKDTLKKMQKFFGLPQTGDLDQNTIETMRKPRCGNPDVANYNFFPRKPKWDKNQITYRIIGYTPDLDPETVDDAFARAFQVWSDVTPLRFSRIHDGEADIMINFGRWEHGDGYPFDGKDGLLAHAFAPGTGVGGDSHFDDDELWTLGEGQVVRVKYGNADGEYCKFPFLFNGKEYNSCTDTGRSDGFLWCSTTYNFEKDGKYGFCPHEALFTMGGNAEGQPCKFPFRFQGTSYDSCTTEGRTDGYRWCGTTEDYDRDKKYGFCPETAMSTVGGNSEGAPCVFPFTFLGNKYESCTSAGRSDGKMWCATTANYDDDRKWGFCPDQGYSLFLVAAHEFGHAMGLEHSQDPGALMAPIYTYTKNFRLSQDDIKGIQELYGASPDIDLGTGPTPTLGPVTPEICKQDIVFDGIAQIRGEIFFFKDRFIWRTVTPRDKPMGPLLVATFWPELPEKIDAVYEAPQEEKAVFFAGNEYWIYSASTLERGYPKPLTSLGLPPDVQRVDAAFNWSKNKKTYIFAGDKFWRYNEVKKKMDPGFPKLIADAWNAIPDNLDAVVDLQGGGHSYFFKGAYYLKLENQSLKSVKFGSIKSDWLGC

Klebsiella pneumoniae [28] = test: Antibacterial activity against clinical isolate Klebsiella pneumoniae 62/07 expressing blaVIM-19 co-expressing blaSHV-1/blaCTX-M-14 and blaCMY-4 assessed as meropenem MIC at 40 uM measured after 20 hrs by broth microdilution assay (reference value: 10.65 mg/L); type: functional
Klebsiella pneumoniae [29] = test: Antibacterial activity against clinical isolate Klebsiella pneumoniae ST1493/10 expressing blaNDM-1 co-expressing blaCMY-2like/blaTEM-1/blaCTX-M-15/blaSHV-28/blaOXA-1 and blaOXA-9 assessed as meropenem MIC at 80 uM measured after 20 hrs by broth microdilution assay (reference value: 21.3 mg/L); type: functional
[30] = molecular target: Metallo-beta-lactamase type 2 (Bacteria, UniProt C7C422)
Metallo-beta-lactamase type 2, sequence (C7C422 whole entry): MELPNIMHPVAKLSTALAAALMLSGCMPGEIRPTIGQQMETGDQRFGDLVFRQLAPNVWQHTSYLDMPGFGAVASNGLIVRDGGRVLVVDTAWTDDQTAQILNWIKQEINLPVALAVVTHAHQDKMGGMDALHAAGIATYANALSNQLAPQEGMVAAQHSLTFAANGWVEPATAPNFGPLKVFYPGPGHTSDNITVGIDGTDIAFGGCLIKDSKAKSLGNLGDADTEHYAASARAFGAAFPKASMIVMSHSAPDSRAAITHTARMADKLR
Description: Inhibition of C-terminal 6His-tagged full length NDM-1 (unknown origin) expressed in Escherichia coli BL21-DE3 using nitrocefin as substrate incubated for 15 mins followed by substrate addition by absorbance based microplate reader analysis

Acinetobacter baumannii [31] = test: Antibacterial activity against clinical isolate Acinetobacter baumannii IC 19/09 expressing blaNDM-1 co-expressing blaOXA-64 assessed as meropenem MIC at 40 uM measured after 20 hrs by broth microdilution assay (reference value: 10.65 mg/L); type: functional
Escherichia coli [32] = test: Antibacterial activity against clinical isolate Escherichia coli 371/12 expressing blaNDM-7 co-expressing blaCTX-M-15 and blaOXA-1 assessed as meropenem MIC at 40 uM measured after 20 hrs by broth microdilution assay (reference value: 10.65 mg/L); type: functional
Escherichia coli [33] = test: Antibacterial activity against clinical isolate Escherichia coli K12 J53-ST10 699/15 expressing blaNDM-1 assessed as meropenem MIC at 80 uM measured after 20 hrs by broth microdilution assay (reference value: 21.3 mg/L); type: functional

MIC (Acinetobacter baumannii [1]): 2 µg/mL | MIC (Klebsiella pneumoniae [2]): ≤ 0.125 µg/mL | IC50 [3]: 50.1 µM | IC50 [4]: 0.79 µM | MIC (Escherichia coli [5]): ≤ 0.125 µg/mL | IC50 [6]: 7.27 µM | MIC (Klebsiella pneumoniae [7]): ≤ 0.125 µg/mL | MIC (Escherichia coli [8]): ≤ 0.125 µg/mL | MIC (Klebsiella pneumoniae [9]): 0.5 µg/mL | MIC (Escherichia coli [10]): 0.25 µg/mL | MIC (Escherichia coli [11]): ≤ 0.125 µg/mL | MIC (Klebsiella pneumoniae [12]): ≤ 0.125 µg/mL | Ratio Ki [13]: 5 | MIC (Escherichia coli [14]): ≤ 0.125 µg/mL | MIC (Escherichia coli [15]): ≤ 0.125 µg/mL | MIC (Escherichia coli [16]): ≤ 0.125 µg/mL | MIC (Escherichia coli [17]): ≤ 0.125 µg/mL | inhibition [18]: > 90% | MIC (Klebsiella pneumoniae [19]): 16 µg/mL | MIC (Klebsiella pneumoniae [20]): ≤ 0.125 µg/mL | MIC (Klebsiella pneumoniae [21]): 16 µg/mL | inhibition [22]: < 5% | MIC (Klebsiella pneumoniae [23]): 4 µg/mL | MIC (Escherichia coli [24]): ≤ 0.125 µg/mL | inhibition [25]: < 5% | MIC (Escherichia coli [26]): ≤ 0.125 µg/mL | Ki [27]: 4.08 µM | MIC (Klebsiella pneumoniae [28]): 1 µg/mL | MIC (Klebsiella pneumoniae [29]): 2 µg/mL | IC50 [30]: 1.64 µM | MIC (Acinetobacter baumannii [31]): 4 µg/mL | MIC (Escherichia coli [32]): 2 µg/mL | MIC (Escherichia coli [33]): ≤ 0.125 µg/mL
SMILES: CS(=O)(=O)Nc1cccc2ccc(C(=O)O)nc12
